Tests used:
Format in all cases: cell-based
[1] = molecular target: T1, M2 muscarinic receptor (Homo sapiens, UniProt P08172); experiment: Functional mobilization of intracellular calcium (FLIPR), M2-CHO cells; conditions: for Emax: 100% efficacy = maximum response obtained with the Carbachol control; for M2 Activity: M2-CHO cells, calcium mobilization (FLIPR)
T1 construct: expressed in transfected cells; host or cells: CHO (M2-CHO)
T1 sequence (P08172 1-466): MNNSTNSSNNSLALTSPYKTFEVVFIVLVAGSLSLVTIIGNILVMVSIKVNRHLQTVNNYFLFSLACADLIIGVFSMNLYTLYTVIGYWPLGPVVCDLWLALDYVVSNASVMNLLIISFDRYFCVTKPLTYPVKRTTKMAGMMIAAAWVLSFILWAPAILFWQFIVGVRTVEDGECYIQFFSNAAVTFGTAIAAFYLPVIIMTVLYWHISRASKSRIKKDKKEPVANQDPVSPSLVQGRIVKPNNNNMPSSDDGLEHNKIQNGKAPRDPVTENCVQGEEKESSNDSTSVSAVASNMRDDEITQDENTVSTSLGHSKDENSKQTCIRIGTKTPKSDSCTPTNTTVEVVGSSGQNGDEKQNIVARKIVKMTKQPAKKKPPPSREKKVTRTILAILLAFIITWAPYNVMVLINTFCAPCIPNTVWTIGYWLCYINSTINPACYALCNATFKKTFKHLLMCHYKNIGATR
How it was run: (§1)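 Calcium mobilisation read by FLIPR over 60 s (ex 488/em 540 nm) in recombinant muscarinic CHO lines loaded with calcium dye plus 1 mM probenecid. Compounds tested as agonists alone, or as inhibitors against EC80 carbachol after 15 min pre-incubation or co-addition; 0.5% DMSO; efficacy scaled to carbachol maximal response.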

[2] = molecular target: T2, M4 muscarinic receptor (Homo sapiens, UniProt P08173); experiment: Functional mobilization of intracellular calcium (FLIPR), M4-CHO cells; conditions: for Emax: 100% efficacy = maximum response obtained with the Carbachol control; for M4 Activity: M4-CHO cells, calcium mobilization (FLIPR)
T2 construct: expressed in transfected cells; host or cells: CHO (M4-CHO)
T2 sequence (P08173 1-479): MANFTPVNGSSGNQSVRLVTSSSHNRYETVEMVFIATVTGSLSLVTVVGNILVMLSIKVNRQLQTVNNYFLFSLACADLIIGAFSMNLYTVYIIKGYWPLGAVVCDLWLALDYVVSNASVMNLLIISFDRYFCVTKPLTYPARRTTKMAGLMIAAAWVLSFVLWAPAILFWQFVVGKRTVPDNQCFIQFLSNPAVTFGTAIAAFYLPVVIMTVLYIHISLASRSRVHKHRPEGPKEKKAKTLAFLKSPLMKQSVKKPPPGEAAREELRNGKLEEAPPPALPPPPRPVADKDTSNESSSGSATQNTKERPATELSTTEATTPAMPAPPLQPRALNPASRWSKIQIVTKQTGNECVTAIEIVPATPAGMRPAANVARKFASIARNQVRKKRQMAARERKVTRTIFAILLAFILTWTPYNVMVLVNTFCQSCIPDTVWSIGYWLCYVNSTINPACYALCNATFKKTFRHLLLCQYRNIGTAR
How it was run: as §1

[3] = molecular target: T3, M3 muscarinic receptor (Homo sapiens, UniProt P20309); experiment: Functional mobilization of intracellular calcium (FLIPR), M3-CHO cells; conditions: for Emax: 100% efficacy = maximum response obtained with the Carbachol control; for M3 Activity: M3-CHO cells, calcium mobilization (FLIPR)
T3 construct: expressed in transfected cells; host or cells: CHO (M3-CHO)
T3 sequence (P20309 whole entry): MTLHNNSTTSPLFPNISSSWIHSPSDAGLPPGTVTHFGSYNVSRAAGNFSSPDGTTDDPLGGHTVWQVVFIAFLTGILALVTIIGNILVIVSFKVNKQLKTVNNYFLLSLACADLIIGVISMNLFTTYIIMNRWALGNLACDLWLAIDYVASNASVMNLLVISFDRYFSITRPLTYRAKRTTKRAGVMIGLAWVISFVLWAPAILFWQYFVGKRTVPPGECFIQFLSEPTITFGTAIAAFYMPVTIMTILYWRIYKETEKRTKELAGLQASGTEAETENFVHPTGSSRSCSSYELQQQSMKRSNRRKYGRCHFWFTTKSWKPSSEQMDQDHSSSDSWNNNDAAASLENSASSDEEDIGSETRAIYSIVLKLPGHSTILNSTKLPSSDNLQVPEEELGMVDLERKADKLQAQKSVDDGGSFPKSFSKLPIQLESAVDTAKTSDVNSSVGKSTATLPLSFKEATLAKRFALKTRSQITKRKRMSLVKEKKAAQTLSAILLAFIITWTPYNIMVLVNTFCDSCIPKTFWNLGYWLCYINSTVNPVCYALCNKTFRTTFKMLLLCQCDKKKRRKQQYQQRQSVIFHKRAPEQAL
How it was run: as §1

[4] = molecular target: T4, M1 muscarinic receptor (Homo sapiens, UniProt P11229); experiment: Functional mobilization of intracellular calcium (FLIPR), M1-CHO cells; conditions: for Emax: 100% efficacy = maximum response obtained with the Carbachol control; for M1 Activity: M1-CHO cells, calcium mobilization (FLIPR)
T4 construct: expressed in transfected cells; host or cells: CHO (M1-CHO)
T4 sequence (P11229 1-460): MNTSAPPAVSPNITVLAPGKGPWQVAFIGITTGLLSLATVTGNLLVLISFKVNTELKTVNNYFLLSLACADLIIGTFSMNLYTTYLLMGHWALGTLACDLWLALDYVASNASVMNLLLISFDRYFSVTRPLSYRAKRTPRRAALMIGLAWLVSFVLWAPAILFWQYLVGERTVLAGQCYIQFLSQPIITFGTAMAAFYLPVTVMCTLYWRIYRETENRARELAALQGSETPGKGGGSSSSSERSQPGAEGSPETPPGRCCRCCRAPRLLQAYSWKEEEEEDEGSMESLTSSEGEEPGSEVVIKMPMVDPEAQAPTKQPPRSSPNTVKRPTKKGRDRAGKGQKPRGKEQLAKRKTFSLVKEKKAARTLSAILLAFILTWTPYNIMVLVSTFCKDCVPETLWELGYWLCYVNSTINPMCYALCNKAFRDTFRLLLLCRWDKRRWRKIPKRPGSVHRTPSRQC
How it was run: as §1

| SMILES | Emax [1] [%] | Emax [2] [%] | Emax [3] [%] | Emax [4] [%] | M2 Activity [1] | M4 Activity [2] | M3 Activity [3] | M1 Activity [4] |
| --- | --- | --- | --- | --- | --- | --- | --- | --- |
| COc1ccccc1C1CCN(C2CCC(C3CCC(=O)CC3)CC2)CC1 (stereo not shown) [Compound 370] | < 25 | 25 to 100 | < 25 | < 25 | + (activity was measured to be greater than 5.0 μM) | ++ (activity was measured to be from 1.0 μM to 5.0 μM) | + (activity was measured to be greater than 5.0 μM) | + (activity was measured to be greater than 5.0 μM) |
| Fc1cccc(C2CCN(C3C[C@H]4CC[C@H]3C4)CC2)c1F (stereo partly shown) [Compound 276] | < 25 | 25 to 100 | < 25 | 25 to 100 | + (activity was measured to be greater than 5.0 μM) | ++ (activity was measured to be from 1.0 μM to 5.0 μM) | + (activity was measured to be greater than 5.0 μM) | + (activity was measured to be greater than 5.0 μM) |
| COc1cc(F)c(F)c(C2CCN(C3CC4CCC(C4)C3)CC2)c1 (stereo not shown) [Compound 310] | < 25 | 25 to 100 | < 25 | < 25 | + (activity was measured to be greater than 5.0 μM) | +++ (activity was measured to be less than 1.0 μM) | + (activity was measured to be greater than 5.0 μM) | + (activity was measured to be greater than 5.0 μM) |
| COc1ccc(-c2ccc(C(N)=O)cc2)cc1C1CCN([C@H]2C[C@H]3CC[C@H]2C3)CC1 [Compound 6] | < 25 | < 25 | < 25 | < 25 | + (activity was measured to be greater than 5.0 μM) | + (activity was measured to be greater than 5.0 μM) | + (activity was measured to be greater than 5.0 μM) | + (activity was measured to be greater than 5.0 μM) |

Further lines, with some results ahead:

| Emax [1] [%] | Emax [2] [%] | Emax [3] [%] | Emax [4] [%] | SMILES | M2 Activity [1] | M4 Activity [2] | M3 Activity [3] | M1 Activity [4] |
| --- | --- | --- | --- | --- | --- | --- | --- | --- |
| < 25 | 25 to 100 | < 25 | 25 to 100 | CCCOc1ccccc1C1CCN([C@H]2C[C@H]3CC[C@H]2C3)CC1 [Compound 47] | + (activity was measured to be greater than 5.0 μM) | ++ (activity was measured to be from 1.0 μM to 5.0 μM) | + (activity was measured to be greater than 5.0 μM) | + (activity was measured to be greater than 5.0 μM) |
| < 25 | < 25 | < 25 | < 25 | COc1ccccc1-c1ccc(OC)c(C2CCN([C@H]3C[C@H]4CC[C@H]3C4)CC2)c1 [Compound 13] | + (activity was measured to be greater than 5.0 μM) | + (activity was measured to be greater than 5.0 μM) | + (activity was measured to be greater than 5.0 μM) | + (activity was measured to be greater than 5.0 μM) |
| < 25 | 25 to 100 | < 25 | < 25 | COc1ccc(Cl)cc1C1(F)CCN(CC2CCCCC2)CC1 [Compound 257] | + (activity was measured to be greater than 5.0 μM) | + (activity was measured to be greater than 5.0 μM) | + (activity was measured to be greater than 5.0 μM) | + (activity was measured to be greater than 5.0 μM) |
| < 25 | 25 to 100 | < 25 | 25 to 100 | COc1ccc(C#N)cc1C1CCN([C@H]2C[C@H]3CC[C@H]2C3)CC1 [Compound 250] | + (activity was measured to be greater than 5.0 μM) | +++ (activity was measured to be less than 1.0 μM) | + (activity was measured to be greater than 5.0 μM) | ++ (activity was measured to be from 1.0 μM to 5.0 μM) |
